Results taken from US20110190267A1, “PRODRUGS OF OPIOIDS AND USES THEREOF” (priority 2010, published 2011).
Values joined by “and” are separate entries in the source; they are usually repeats but may differ in a detail not shown here. Equal entries are not always repeated.

Legend:
[1] = Pharmacokinetics of meptazinol from PABA analogue prodrugs, monkeys (Example 26); assay type: in vivo; conditions: monkey, plasma, po, 2 mg/kg
Method: (§1) Blood samples were taken at various times after administration and submitted to analysis for the parent drug and prodrug using a validated LC-MS-MS assay. Pharmacokinetic parameters derived from the plasma analytical data were determined using Win Nonlin.

[2] = Pharmacokinetics of meptazinol from PABA analogue prodrugs, dogs (Example 26); assay type: in vivo; conditions: dog, plasma, po, 1 mg/kg
Method: as §1

[3] = Pharmacokinetics of meptazinol or meptazinol PABA carbamate, dogs (Example 27); assay type: in vivo, dog; conditions: for Vd: read-out: Vss; for Fabs: meptazinol
Excerpt: The results are given in Tables 8 to 11 and shown graphically in FIG. 2.

[4] = Pharmacokinetics of meptazinol or meptazinol PABA carbamate, monkeys (Example 29); assay type: in vivo, monkey; conditions: for AUC / C0 / t½ / Cmax / T>50%Cmax / Tmax / half-life: meptazinol in plasma; for Fabs: meptazinol; for Vd: read-out: Vss; for half-life: read-out: t½ (converted)
Excerpt: The results are given in Tables 15 to 18 and shown graphically in FIG. 4.

[5] = target: T1, Acetylcholinesterase (h), human recombinant (HEK-293 cells) (Homo sapiens, UniProt P22303); assay: Human acetylcholine esterase inhibition (Example 31); assay type: biochemical; conditions: AMTCh 50 μM, 30 min./37° C., photometry; read-out: apparent IC50
T1 construct: host or cells: HEK-293 cells
Method: The results are expressed as a percent of control specific activity ((measured specific activity/control specific activity)×100) obtained in the presence of the test compounds.
The IC50 values (concentration causing a half-maximal inhibition of control specific activity), and Hill coefficients (nh) were determined by non-linear regression analysis of the inhibition curves generated with mean replicate values using hill equation curve fitting (y=d+[(a−d)/(1+(c/c50)^nh)], where y=specific activity, d=minimum specific activity, a=maximum specific activity, c=compound concentration, C50=IC50, and nh=slope factor).
This analysis was performed using software developed at Cerep (Hill software) and validated by comparison with data generated by the commercial software Sigmaplot® 4.0 for Windows®.

[6] = Norbury et al. (1983); cited from earlier work
[7] = Pharmacokinetics of meptazinol or meptazinol PABA carbamate, rats (Example 30); conditions: for Fabs: meptazinol; for clearance: CL; for Vd: Vss
Method: Blood samples were taken at various times after administration and submitted to analysis for the parent drug and pro-drug using a validated LC-MS-MS assay. Pharmacokinetic parameters derived from the plasma analytical data were determined using Win Nonlin.

[8] = read-out: AUC* (mean ngh/mL), AUC0-t
[9] = dog, plasma, iv, 1 mg/kg, iv meptazinol 1 mg free base equivalents/kg, individual animals
[10] = dog, plasma, iv, 1 mg/kg, iv meptazinol 1 mg free base equivalents/kg, mean
[11] = iv meptazinol 1 mg free base equivalents/kg, individual animals
[12] = meptazinol in plasma, oral meptazinol 1 mg free base equivalents/kg, individual animals
[13] = meptazinol in plasma, oral meptazinol 1 mg free base equivalents/kg, mean
[14] = oral meptazinol 10 mg free base equivalents/kg, individual animals
[15] = oral meptazinol 10 mg free base equivalents/kg, mean
[16] = monkey, plasma, iv, 1 mg/kg, iv meptazinol 1 mg free base equivalents/kg, individual animals
[17] = monkey, plasma, iv, 1 mg/kg, iv meptazinol 1 mg free base equivalents/kg, mean
[18] = iv meptazinol 1 mg free base equivalents/kg, rats, individual animals
[19] = meptazinol in plasma, iv meptazinol 1 mg free base equivalents/kg, rats, individual animals
[20] = meptazinol in plasma, oral meptazinol 1 mg free base equivalents/kg, rats, individual animals
[21] = rat, plasma, iv, 1 mg/kg, iv meptazinol 1 mg free base equivalents/kg, rats, individual animals
[22] = rat, plasma, iv, 1 mg/kg, iv meptazinol 1 mg free base equivalents/kg, rats, mean

T1 sequence (P22303 32-614): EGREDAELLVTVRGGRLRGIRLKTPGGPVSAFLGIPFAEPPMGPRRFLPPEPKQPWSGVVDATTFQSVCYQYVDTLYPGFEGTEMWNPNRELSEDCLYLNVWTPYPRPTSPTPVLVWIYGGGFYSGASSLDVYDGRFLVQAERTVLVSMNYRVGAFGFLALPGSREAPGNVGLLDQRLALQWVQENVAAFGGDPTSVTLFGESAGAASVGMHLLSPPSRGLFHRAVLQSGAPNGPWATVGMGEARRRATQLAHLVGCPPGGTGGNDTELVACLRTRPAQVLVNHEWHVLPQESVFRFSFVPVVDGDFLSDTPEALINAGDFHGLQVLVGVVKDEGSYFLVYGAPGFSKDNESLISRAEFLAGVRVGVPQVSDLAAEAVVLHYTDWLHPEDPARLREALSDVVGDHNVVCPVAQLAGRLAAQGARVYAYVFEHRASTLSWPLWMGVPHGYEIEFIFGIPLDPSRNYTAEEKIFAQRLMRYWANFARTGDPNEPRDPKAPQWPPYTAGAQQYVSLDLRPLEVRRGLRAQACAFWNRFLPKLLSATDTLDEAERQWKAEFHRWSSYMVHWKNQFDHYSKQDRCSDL

With `CCC1(c2cccc(O)c2)CCCCN(C)C1` (stereo not shown) [meptazinol] the Cmax [1] was 1.3 ± 0.3 ng/mL, the AUC(0-t) [1, 8] was 3.1 ± 0.7 ng·h/mL and the Cmax [2] was 4 ± 5.5 ng/mL. It also gave an AUC(0-t) [2, 8] of 5.4 ± 5.9 ng·h/mL, a clearance [3, 9] of 67.3 mL/min/kg and a Vd [3, 9] of 4.14 L. The clearance [3, 10] was 62.7 mL/min/kg, the Vd [3, 10] was 3.55 L and the AUC ([3]; dog, plasma, iv, 1 mg/kg, meptazinol in plasma, iv meptazinol 1 mg free base equivalents/kg, individual animals, read-out: AUC) was 247 ng·h/mL. It also gave an AUC ([3]; dog, plasma, iv, 1 mg/kg, meptazinol in plasma, iv meptazinol 1 mg free base equivalents/kg, mean, read-out: AUC) of 269 ng·h/mL, a Cmax ([3]; dog, plasma, po, 1 mg/kg, meptazinol in plasma, oral meptazinol 1 mg free base equivalents/kg, individual animals, read-out: Cmax) of 4.22 ng/mL and an AUC ([3]; dog, plasma, po, 1 mg/kg, meptazinol in plasma, oral meptazinol 1 mg free base equivalents/kg, mean, read-out: AUC) of 15.6 ng·h/mL. For the same compound, the half-life ([3]; dog, plasma, po, 1 mg/kg, meptazinol in plasma, oral meptazinol 1 mg free base equivalents/kg, mean, read-out: t½ (converted)) was 108 min, the CL [3, 11] was 60.8 mL/min/kg and 57.2 mL/min/kg and 54.5 mL/min/kg and 73.3 mL/min/kg and the Co ([3]; meptazinol in plasma, iv meptazinol 1 mg free base equivalents/kg, individual animals) was 340 ng/mL and 308 ng/mL and 350 ng/mL and 402 ng/mL and 477 ng/mL. For the same compound, the Co ([3]; meptazinol in plasma, iv meptazinol 1 mg free base equivalents/kg, mean) was 375 ng/mL, the AUC [3, 12] was 15.1 ng · h/mL and 15.8^b ng · h/mL and 23.3 ng · h/mL and 19.6^b ng · h/mL and 8.52 ng · h/mL and the Cmax [3, 12] was 6.82 ng/mL and 6.79 ng/mL and 5.04 ng/mL and 3.52 ng/mL. For the same compound, the “T>50%Cmax” value [3, 12] was 2.5 h and 1.1 h and 1.9 h and 2.4 h and 1.8 h, the Tmax [3, 12] was 0.5 h and 1 h (2×) and the Cmax [3, 13] was 5.28 ng/mL. For the same compound, the “T>50%Cmax” value [3, 13] was 1.9 h, the Fabs ([3]; oral meptazinol 1 mg free base equivalents/kg, individual animals) was 6.1% and 5.8% and 8.0% and 6.4% and 3.8% and the Fabs ([3]; oral meptazinol 1 mg free base equivalents/kg, mean) was 6.0±2.1% and 6.0%. For the same compound, the CL [4, 11] was 66.2 mL/min/kg and 73.2 mL/min/kg and 77.3 mL/min/kg and 70.3 mL/min/kg, the Vss [4, 11] was 4.88 L and 4.11 L and 4.96 L and the AUC [4, 11] was 252 ng·h/mL and 228 ng·h/mL and 215 ng·h/mL and 237 ng·h/mL. For the same compound, the C0 [4, 11] was 334 ng/mL and 226 ng/mL (2×) and 369 ng/mL, the t½ [4, 11] was 49.8 min and 40.8 min and 52.2 min and the AUC [4, 14] was 47.7 ng·h/mL and 37.7 ng·h/mL and 38.2 ng·h/mL and 47.8 ng·h/mL. The Cmax [4, 14] was 18.3 ng/mL and 19.8 ng/mL and 22.5 ng/mL and 19 ng/mL, the “T>50%Cmax” value [4, 14] was 0.9 h and 2.4 h and 1.7 h and 1.4 h and 2.3 h and the Tmax [4, 14] was 120 min and 60 min. For the same compound, the t½ [4, 14] was 48 min and 54 min and 42 min, the “T>50%Cmax” value [4, 15] was 1.7 h and the Fabs [4, 14] was 1.6% (3×) and 2.0% (2×). It also gave a Fabs [4, 15] of 1.8%, a clearance [4, 16] of 73.7 mL/min/kg and a Vd [4, 16] of 4.83 L. It also gave a clearance [4, 17] of 72.2 mL/min/kg, a Vd [4, 17] of 4.72 L and an AUC ([4]; monkey, plasma, iv, 1 mg/kg, iv meptazinol 1 mg free base equivalents/kg, individual animals, read-out: AUC) of 227 ng·h/mL. The C0 ([4]; monkey, plasma, iv, 1 mg/kg, iv meptazinol 1 mg free base equivalents/kg, individual animals, read-out: C0) was 211 ng/mL, the half-life [4, 16] was 48.6 min and the AUC ([4]; monkey, plasma, iv, 1 mg/kg, iv meptazinol 1 mg free base equivalents/kg, mean, read-out: AUC) was 232 ng·h/mL. For the same compound, the C0 ([4]; monkey, plasma, iv, 1 mg/kg, iv meptazinol 1 mg free base equivalents/kg, mean, read-out: C0) was 273 ng/mL, the half-life [4, 17] was 50.4 min and the AUC ([4]; monkey, plasma, po, 10 mg meptazinol free base equivalents/kg, oral meptazinol 10 mg free base equivalents/kg, individual animals, read-out: AUC) was 39.4 ng·h/mL. It also gave a Cmax ([4]; monkey, plasma, po, 10 mg meptazinol free base equivalents/kg, oral meptazinol 10 mg free base equivalents/kg, individual animals, read-out: Cmax) of 26.1 ng/mL, a half-life ([4]; monkey, plasma, po, 10 mg meptazinol free base equivalents/kg, oral meptazinol 10 mg free base equivalents/kg, individual animals) of 60 min and an AUC ([4]; monkey, plasma, po, 10 mg meptazinol free base equivalents/kg, oral meptazinol 10 mg free base equivalents/kg, mean, read-out: AUC) of 42.2 ng·h/mL. The Cmax ([4]; monkey, plasma, po, 10 mg meptazinol free base equivalents/kg, oral meptazinol 10 mg free base equivalents/kg, mean, read-out: Cmax) was 21.1 ng/mL, the half-life ([4]; monkey, plasma, po, 10 mg meptazinol free base equivalents/kg, oral meptazinol 10 mg free base equivalents/kg, mean) was 48 min and the Tmax ([4]; monkey, plasma, po, 10 mg meptazinol free base equivalents/kg, oral meptazinol 10 mg free base equivalents/kg, median value, read-out: Tmax) was 30 min. The IC50 [5] was 1500 nM, the oral bioavailability [6] was < 10% and the CL [7, 18] was 75.2 mL/min/kg and 88.3 mL/min/kg and 89.3 mL/min/kg and 92.2 mL/min/kg. For the same compound, the Vss [7, 18] was 4.0 L and 5.4 L (2×) and 5.1 L, the AUC [7, 19] was 222 ng·h/mL and 189 ng·h/mL and 187 ng·h/mL and 181 ng·h/mL and the C0 [7, 19] was 246 ng/mL and 259 ng/mL and 267 ng/mL and 244 ng/mL. For the same compound, the t½ [7, 19] was 36 min and 42 min, the “AUC*” value ([7]; meptazinol in plasma, oral meptazinol 1 mg free base equivalents/kg, rats, calculated based on half-life from previous iv study, individual animals) was 3.1 ng·h/mL and 2.8 ng·h/mL and 4.9 ng·h/mL and the Cmax [7, 20] was 1.12 ng/mL and 1.49 ng/mL and 1.44 ng/mL. The “t½*” value [7, 20] was 54 min, the Fabs ([7]; oral meptazinol 1 mg free base equivalents/kg, rats, individual animals) was 1.6% (2×) and 1.5% and 2.6% and the Fabs ([7]; oral meptazinol 1 mg free base equivalents/kg, rats, mean) was 1.8±0.5% and 1.8%. The AUC ([7]; rat, plasma, iv, 1 mg/kg, AUC, meptazinol in plasma, iv meptazinol 1 mg free base equivalents/kg, rats, individual animals) was 161 ng·h/mL, the AUC ([7]; rat, plasma, iv, 1 mg/kg, AUC, meptazinol in plasma, iv meptazinol 1 mg free base equivalents/kg, rats, mean) was 188 ng·h/mL and the C0 ([7]; rat, plasma, iv, 1 mg/kg, C0, meptazinol in plasma, iv meptazinol 1 mg free base equivalents/kg, rats, individual animals) was 191 ng/mL. For the same compound, the C0 ([7]; rat, plasma, iv, 1 mg/kg, C0, meptazinol in plasma, iv meptazinol 1 mg free base equivalents/kg, rats, mean) was 241 ng/mL, the clearance [7, 21] was 104 mL/min/kg and the clearance [7, 22] was 89.7 mL/min/kg. For the same compound, the Vd [7, 21] was 6.8 L, the Vd [7, 22] was 5.3 L and the half-life ([7]; rat, plasma, iv, 1 mg/kg, t½, meptazinol in plasma, iv meptazinol 1 mg free base equivalents/kg, rats, individual animals) was 48 min. For the same compound, the half-life ([7]; rat, plasma, iv, 1 mg/kg, t½, meptazinol in plasma, iv meptazinol 1 mg free base equivalents/kg, rats, mean) was 42 min, the Tmax ([7]; rat, plasma, po, 1 mg/kg) was 30 min and the AUC ([7]; rat, plasma, po, 1 mg/kg, AUC*, meptazinol in plasma, oral meptazinol 1 mg free base equivalents/kg, rats, calculated based on half-life from previous iv study, individual animals) was 2.9 ng·h/mL. It also gave an AUC ([7]; rat, plasma, po, 1 mg/kg, AUC*, meptazinol in plasma, oral meptazinol 1 mg free base equivalents/kg, rats, calculated based on half-life from previous iv study, mean) of 3.4 ng·h/mL, a Cmax ([7]; rat, plasma, po, 1 mg/kg, Cmax, meptazinol in plasma, oral meptazinol 1 mg free base equivalents/kg, rats, individual animals) of 1.93 ng/mL and a Cmax ([7]; rat, plasma, po, 1 mg/kg, Cmax, meptazinol in plasma, oral meptazinol 1 mg free base equivalents/kg, rats, mean) of 1.6 ng/mL. For the same compound, the half-life ([7]; rat, plasma, po, 1 mg/kg, t½*, meptazinol in plasma, oral meptazinol 1 mg free base equivalents/kg, rats, mean) was 78 min.
